Source: patent US20060052627A1, “Novel modulators of the PPAR-type receptors and cosmetic/pharmaceutical compositions comprised thereof” (GALDERMA RESEARCH & DEVELOPMENT, S.N.C., priority 2003, published 2006)

Tests used:
Assay type in all cases: cell-based
PPARα = target: T1, PPARα (Homo sapiens, UniProt Q07869); test: Cross-curve PPAR transactivation test (luciferase reporter, HeLN cells), PPARα; settings: HeLN cells stably transfected with Gal-hPPARα; apparent Kd by Schild regression against reference agonist; n.a. means not active; read-out: PPAR alpha Kd app
T1 sequence (Q07869 200-468 limits assumed): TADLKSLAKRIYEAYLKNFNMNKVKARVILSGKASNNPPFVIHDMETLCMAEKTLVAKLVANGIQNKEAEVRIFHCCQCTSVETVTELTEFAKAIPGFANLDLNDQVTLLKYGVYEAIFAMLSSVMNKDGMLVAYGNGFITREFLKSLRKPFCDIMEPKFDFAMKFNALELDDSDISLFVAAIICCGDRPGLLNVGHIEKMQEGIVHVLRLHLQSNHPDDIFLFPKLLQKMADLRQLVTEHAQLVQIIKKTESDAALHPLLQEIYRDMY
Experimental: (§1) This activity on the PPARα, δ and γ receptors is measured in a transactivation test and quantified by the dissociation constant Kdapp (apparent), as described in Example 142.
(§2) The activation of receptors with an agonist (activator) in HeLN cells leads to the expression of a reporter gene, luciferase, which, in the presence of a substrate, generates light. The modulation of the receptors is measured as quantity of luminescence produced after incubating the cells in the presence of a reference agonist. The ligands will displace the agonist from its site. The measurement of the activity is performed by quantification of the light produced. This measurement makes it possible to determine the modulatory activity of the compounds according to the invention by determining the constant which is the affinity of the molecule for the receptor. […]
(§3) The various dilutions of the test products and of the reference ligand are added in an amount of 5 [I per well. […] After 5 minutes, the plates are read by the luminescence reader.
(§4) These AC50 values are used to calculate the Schild regression by plotting a straight line corresponding to the Schild equation (“quantitation in receptor pharmacology” Terry P. Kenakin, Receptors and Channels, 2001, 7, 371-385) which leads to Kd app values being obtained (in nM).

PPARδ = PPARδ (Homo sapiens, UniProt Q03181); test: Cross-curve PPAR transactivation test (luciferase reporter, HeLN cells), PPARδ; settings: HeLN cells stably transfected with Gal-hPPARδ; apparent Kd by Schild regression against reference agonist; n.a. means not active; read-out: PPAR delta Kd app
Sequence of PPARδ (Q03181 211-441 limits assumed): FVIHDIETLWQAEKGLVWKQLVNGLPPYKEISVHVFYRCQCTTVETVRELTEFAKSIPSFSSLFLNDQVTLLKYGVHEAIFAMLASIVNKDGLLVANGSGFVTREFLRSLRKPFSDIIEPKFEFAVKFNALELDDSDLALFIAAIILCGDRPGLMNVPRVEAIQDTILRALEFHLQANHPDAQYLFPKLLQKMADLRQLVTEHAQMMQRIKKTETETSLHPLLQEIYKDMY
Experimental: as §1, §2, §3, §4

PPARγ = target: T2, PPARγ (Homo sapiens, UniProt P37231); test: Cross-curve PPAR transactivation test (luciferase reporter, HeLN cells), PPARγ; settings: HeLN cells stably transfected with Gal-hPPARγ; apparent Kd by Schild regression against reference agonist; n.a. means not active; read-out: PPAR gamma Kd app
T2 sequence (P37231 238-505 limits assumed): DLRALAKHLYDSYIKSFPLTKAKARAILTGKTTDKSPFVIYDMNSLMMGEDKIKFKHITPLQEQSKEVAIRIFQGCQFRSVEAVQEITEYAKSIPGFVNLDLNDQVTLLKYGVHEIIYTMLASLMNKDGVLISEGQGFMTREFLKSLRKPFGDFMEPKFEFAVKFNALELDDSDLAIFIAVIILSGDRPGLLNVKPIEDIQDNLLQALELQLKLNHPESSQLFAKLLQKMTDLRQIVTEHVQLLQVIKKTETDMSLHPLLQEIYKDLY
Experimental: as §1, §2, §3, §4

Kd (PPARα) [nM]	Kd (PPARδ) [nM]	Kd (PPARγ) [nM]	Compound
8000	120	2000	CCCCCCNC(=O)N(CCCc1ccccc1)c1cccc(Sc2ccc(CC(=O)O)cc2)c1 [Example 30b, (4-{3-[3-Hexyl-1-(3-phenylpropyl)ureido]phenylsulfanyl}phenyl)acetic acid]
250	120	500	O=C(O)Cc1ccc(Sc2ccc(N(CCc3ccccc3)C(=O)NC3CCCCC3)cc2)cc1 [Example 116b, {4-[4-(3-Cyclohexyl-1-phenethylureido)phenylsulfanyl]phenyl}acetic acid]
